Experimental data reported in publication PMC11311990, “Identification of Ribonuclease Inhibitors for the Control of Pathogenic Bacteria” (International Journal of Molecular Sciences, 2024).

Columns and labels:
RNase R = target: T1, RNase R (Escherichia coli, UniProt P21499); type: biochemical; conditions: 10 mM compound, 10 nM enzyme, 10 nM poly(A), 1 mM MgCl2, 100 mM KCl, pH 8, 37 °C, DMSO
T1 construct: gene rnr; full-length recombinant, N-terminal His tag (pET15b derivative), expressed in E. coli BL21(DE3), IMAC purified
T1 sequence (P21499 2-813): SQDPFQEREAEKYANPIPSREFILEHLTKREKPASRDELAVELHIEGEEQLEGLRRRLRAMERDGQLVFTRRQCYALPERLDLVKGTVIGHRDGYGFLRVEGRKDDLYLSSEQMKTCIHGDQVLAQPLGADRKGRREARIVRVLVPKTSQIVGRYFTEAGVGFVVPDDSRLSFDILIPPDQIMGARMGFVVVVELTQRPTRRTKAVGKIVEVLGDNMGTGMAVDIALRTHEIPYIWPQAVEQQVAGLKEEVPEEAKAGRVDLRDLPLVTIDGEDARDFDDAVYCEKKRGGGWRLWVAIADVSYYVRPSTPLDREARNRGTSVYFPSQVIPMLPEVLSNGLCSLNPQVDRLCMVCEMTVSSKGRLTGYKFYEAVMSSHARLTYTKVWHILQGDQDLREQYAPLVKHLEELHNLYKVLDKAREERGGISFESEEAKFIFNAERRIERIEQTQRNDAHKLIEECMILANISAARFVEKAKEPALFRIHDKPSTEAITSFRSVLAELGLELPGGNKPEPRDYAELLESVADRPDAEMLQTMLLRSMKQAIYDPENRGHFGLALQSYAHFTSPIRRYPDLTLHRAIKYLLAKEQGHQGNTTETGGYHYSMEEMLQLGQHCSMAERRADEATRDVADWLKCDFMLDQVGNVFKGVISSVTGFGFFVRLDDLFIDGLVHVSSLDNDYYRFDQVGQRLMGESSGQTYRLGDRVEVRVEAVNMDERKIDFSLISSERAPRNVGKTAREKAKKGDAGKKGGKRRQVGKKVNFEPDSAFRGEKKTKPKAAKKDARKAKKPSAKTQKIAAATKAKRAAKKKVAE

RNase II = target: T2, RNase II (Escherichia coli, UniProt P30850); type: biochemical; conditions: 10 mM compound, 10 nM enzyme, 10 nM poly(A), 1 mM MgCl2, 100 mM KCl, pH 8, 37 °C, DMSO
T2 construct: gene rnb; full-length recombinant, N-terminal His tag (pET15b derivative), expressed in E. coli BL21(DE3), IMAC purified
T2 sequence (P30850 whole entry): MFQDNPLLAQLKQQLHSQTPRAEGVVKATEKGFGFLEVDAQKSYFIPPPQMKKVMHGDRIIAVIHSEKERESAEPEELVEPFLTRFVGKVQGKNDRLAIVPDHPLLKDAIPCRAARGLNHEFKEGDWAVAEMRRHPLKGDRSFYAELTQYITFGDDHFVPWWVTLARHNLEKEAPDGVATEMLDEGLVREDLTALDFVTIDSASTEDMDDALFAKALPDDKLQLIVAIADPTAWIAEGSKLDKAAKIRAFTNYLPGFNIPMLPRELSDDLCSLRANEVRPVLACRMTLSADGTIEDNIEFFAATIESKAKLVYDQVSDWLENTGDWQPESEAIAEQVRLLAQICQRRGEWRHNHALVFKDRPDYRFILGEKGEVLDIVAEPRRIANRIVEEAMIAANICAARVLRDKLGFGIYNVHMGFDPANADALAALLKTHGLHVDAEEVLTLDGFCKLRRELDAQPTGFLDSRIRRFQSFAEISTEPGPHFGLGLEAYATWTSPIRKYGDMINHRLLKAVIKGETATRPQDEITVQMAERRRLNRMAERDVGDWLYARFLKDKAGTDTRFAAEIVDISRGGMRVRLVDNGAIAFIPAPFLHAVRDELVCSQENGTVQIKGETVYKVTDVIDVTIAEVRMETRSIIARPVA

## CC(=O)Nc1nc(C)c(Oc2cccc(C(F)(F)F)c2)c(O)n1 [SPB04462, N1-{4-hydroxy-6-methyl-5-[3-(trifluoromethyl)phenoxy]pyrimidin-2-yl}acetamide]
RNase R
  gel exoribonuclease assay, 5'-32P 35-nt poly(A): SPB04215 and SPB04462 compounds were also effective in inhibiting RNase R activity
RNase II
  gel exoribonuclease assay, 5'-32P 35-nt poly(A): with RNase II being also affected, but to a lesser extent

## Cc1nc(S)nc(O)c1Oc1cccc(C(F)(F)F)c1 [SPB04215, 2-mercapto-6-methyl-5-[3-(trifluoromethyl)phenoxy]pyrimidin-4-ol]
RNase R
  gel exoribonuclease assay, 5'-32P 35-nt poly(A): SPB04215 and SPB04462 compounds were also effective in inhibiting RNase R activity
RNase II
  gel exoribonuclease assay, 5'-32P 35-nt poly(A): with RNase II being also affected, but to a lesser extent
